From ChEMBL document CHEMBL5512659, “Structure optimizing of flavonoids against both MRSA and VRE” (Eur J Med Chem, 2024)
Activity calls are given as the source filed them.

What was measured:
Staphylococcus aureus [1] = experiment: Antibacterial activity against methicillin resistant Staphylococcus aureus clinical isolate 003; type: functional
Enterococcus faecalis [2] = experiment: Antibacterial activity against multidrug resistant Enterococcus faecalis ATCC 51299; type: functional
Staphylococcus aureus [3] = experiment: Antibacterial activity against methicillin resistant Staphylococcus aureus clinical isolate 031; type: functional
Staphylococcus aureus [4] = experiment: Antibacterial activity against methicillin resistant Staphylococcus aureus clinical isolate 011; type: functional
Staphylococcus aureus [5] = experiment: Antibacterial activity against Staphylococcus aureus clinical isolate 29; type: functional
Staphylococcus aureus [6] = experiment: Antibacterial activity against Staphylococcus aureus clinical isolate 31; type: functional
Enterococcus faecalis [7] = experiment: Antibacterial activity against Enterococcus faecalis clinical isolate 7; type: functional
Enterococcus faecalis [8] = experiment: Antibacterial activity against Enterococcus faecalis clinical isolate 13; type: functional
Staphylococcus aureus [9] = experiment: Bactericidal activity against methicillin-resistant Staphylococcus aureus clinical isolate 003 assessed as inhibition of bacterial growth by measuring ratio of MBC to MIC; type: functional
Enterococcus faecalis [10] = experiment: Bactericidal activity against multidrug resistant Enterococcus faecalis ATCC 51299 assessed as inhibition of bacterial growth by measuring ratio of MBC to MIC; type: functional
Staphylococcus aureus [11] = experiment: Antibacterial activity against methicillin-resistant Staphylococcus aureus clinical isolate 003 at 2 to 4 times MIC measured after 8 to 12 hrs by time-kill assay; type: functional, organism-based; settings: time 8-12 hrs
Staphylococcus aureus [12] = experiment: Antibiofilm activity in methicillin resistant Staphylococcus aureus clinical isolate 003 assessed as reduction in biofilm density at 0.5 to 4 times MIC measured after 24 hrs by inverted fluorescence microscopic analysis; type: functional, organism-based
Enterococcus faecalis [13] = experiment: Antibiofilm activity in multidrug resistant Enterococcus faecalis ATCC 51299 assessed as destruction of biofilm integrity at 0.5 to 4 times MIC measured after 24 hrs by inverted fluorescence microscopic analysis; type: functional, organism-based
Staphylococcus aureus [14] = experiment: Antibiofilm activity in methicillin resistant Staphylococcus aureus clinical isolate 003 assessed as biofilm clearance at 0.5 to 4 times MIC by crystal violet staining based analysis; type: functional, organism-based
Enterococcus faecalis [15] = experiment: Antibiofilm activity in multidrug resistant Enterococcus faecalis ATCC 51299 assessed as biofilm clearance at 0.5 to 4 times MIC by crystal violet staining based analysis; type: functional, organism-based
Staphylococcus aureus [16] = experiment: Antibiofilm activity in methicillin resistant Staphylococcus aureus clinical isolate 003 assessed as inhibition of biofilm formation at 4 times MIC by crystal violet staining based analysis relative to control; type: functional
Enterococcus faecalis [17] = experiment: Antibiofilm activity in multidrug resistant Enterococcus faecalis ATCC 51299 assessed as inhibition of biofilm formation at 4 times MIC by crystal violet staining based analysis relative to control; type: functional
Cell membrane [18] = experiment: Induction of membrane damage in methicillin resistant Staphylococcus aureus clinical isolate 003 assessed as rupture of bacterial surface at 2 to 4 times MIC by SEM analysis; type: cell membranes
Cell membrane [19] = experiment: Induction of membrane damage in methicillin resistant Staphylococcus aureus clinical isolate 003 assessed as deformation of bacterial surface at 2 to 4 times MIC by SEM analysis; type: cell membranes
Cell membrane [20] = experiment: Induction of membrane damage in multidrug resistant Enterococcus faecalis ATCC 51299 assessed as rupture of bacterial surface at 2 to 4 times MIC by SEM analysis; type: cell membranes
Cell membrane [21] = experiment: Induction of membrane damage in multidrug resistant Enterococcus faecalis ATCC 51299 assessed as deformation of bacterial surface at 2 to 4 times MIC by SEM analysis; type: cell membranes
Staphylococcus aureus [22] = experiment: Antibacterial activity against methicillin resistant Staphylococcus aureus clinical isolate 003 in presence of peptidoglycan; type: functional, organism-based
Staphylococcus aureus [23] = experiment: Antibacterial activity against methicillin resistant Staphylococcus aureus clinical isolate 003 in presence of phosphatidylglycerol; type: functional, organism-based
Staphylococcus aureus [24] = experiment: Antibacterial activity against methicillin resistant Staphylococcus aureus clinical isolate 003 in presence of phosphatidylethanolamine; type: functional, organism-based
Staphylococcus aureus [25] = experiment: Antibacterial activity against methicillin resistant Staphylococcus aureus clinical isolate 003 in presence of cardiolipin; type: functional, organism-based
Enterococcus faecalis [26] = experiment: Antibacterial activity against multidrug resistant Enterococcus faecalis ATCC 51299 in presence of peptidoglycan; type: functional, organism-based
Enterococcus faecalis [27] = experiment: Antibacterial activity against multidrug resistant Enterococcus faecalis ATCC 51299 in presence of cardiolipin; type: functional, organism-based
Cell membrane [28] = experiment: Induction of membrane depolarization in methicillin resistant Staphylococcus aureus clinical isolate 003 assessed as increase in fluorescence intensity at 2 to 4 times MIC by DiSC3(5) dye based analysis
Cell membrane [29] = experiment: Induction of membrane depolarization in multidrug resistant Enterococcus faecalis ATCC 51299 assessed as increase in fluorescence intensity at 2 to 4 times MIC by DiSC3(5) dye based analysis
Cell membrane [30] = experiment: Disruption of membrane permeability in methicillin resistant Staphylococcus aureus clinical isolate 003 assessed as increase in fluorescence intensity at 4 to 8 times MIC by PI staining based analysis
Cell membrane [31] = experiment: Disruption of membrane permeability in multidrug resistant Enterococcus faecalis ATCC 51299 assessed as increase in fluorescence intensity at 4 to 8 times MIC by PI staining based analysis
Cell membrane [32] = experiment: Disruption of membrane permeability in methicillin resistant Staphylococcus aureus clinical isolate 003 assessed as protein leakage at 2 to 4 times MIC
Cell membrane [33] = experiment: Disruption of membrane permeability in multidrug resistant Enterococcus faecalis ATCC 51299 assessed as protein leakage at 2 to 4 times MIC; type: cell membranes
Cell membrane [34] = experiment: Disruption of membrane permeability in multidrug resistant Enterococcus faecalis ATCC 51299 assessed as nucleic acid leakage at 2 to 4 times MIC
Cell membrane [35] = experiment: Disruption of membrane permeability in methicillin resistant Staphylococcus aureus clinical isolate 003 assessed as increase in ROS accumulation at 2 to 4 times MIC measured after 1 hr
Cell membrane [36] = experiment: Disruption of membrane permeability in multidrug resistant Enterococcus faecalis ATCC 51299 assessed as increase in ROS accumulation at 2 to 4 times MIC measured after 1 hr
Cell membrane [37] = experiment: Disruption of membrane permeability in methicillin resistant Staphylococcus aureus clinical isolate 003 assessed as increase in malondialdehyde level
Cell membrane [38] = experiment: Disruption of membrane permeability in multidrug resistant Enterococcus faecalis ATCC 51299 assessed as increase in malondialdehyde level
Cell membrane [39] = experiment: Induction of cell membrane damage in methicillin resistant Staphylococcus aureus clinical isolate 003 assessed as increase in green fluorescence at 2 to 4 times MIC by SYTOX Green dye based analysis; type: cell membranes
Cell membrane [40] = experiment: Induction of cell membrane damage in multidrug resistant Enterococcus faecalis ATCC 51299 assessed as increase in green fluorescence at 2 to 4 times MIC by SYTOX Green dye based analysis; type: cell membranes
Cell membrane [41] = experiment: Induction of cell membrane damage in methicillin resistant Staphylococcus aureus clinical isolate 003 assessed as increase in red fluorescence at 2 to 4 times MIC by PI staining based analysis; type: cell membranes
Cell membrane [42] = experiment: Induction of cell membrane damage in multidrug resistant Enterococcus faecalis ATCC 51299 assessed as increase in red fluorescence at 2 to 4 times MIC by PI staining based analysis; type: cell membranes
Cell membrane [43] = experiment: Induction of cell membrane damage in methicillin resistant Staphylococcus aureus clinical isolate 003 assessed as bacterial death at 2 to 4 times MIC by confocal laser scanning microscopy; type: cell membranes
Cell membrane [44] = experiment: Induction of cell membrane damage in multidrug resistant Enterococcus faecalis ATCC 51299 assessed as bacterial death at 2 to 4 times MIC by confocal laser scanning microscopy; type: cell membranes

CCCCCCc1c(-c2ccc(OCCCCNCCCN)cc2OCCCCNCCCN)oc2cc(OC)cc(O)c2c1=O
active: Activity (Staphylococcus aureus [11]) | Activity (Staphylococcus aureus [12]) Dose-Dependent Effect | Activity (Enterococcus faecalis [13]) Dose-Dependent Effect | Activity (Staphylococcus aureus [14]) Dose-Dependent Effect | Activity (Enterococcus faecalis [15]) Dose-Dependent Effect | Activity (Cell membrane [18]) | Activity (Cell membrane [19]) | Activity (Cell membrane [20]) | Activity (Cell membrane [21]) | Activity (Staphylococcus aureus [22]) | Activity (Enterococcus faecalis [26]) | Activity (Cell membrane [28]) Dose-Dependent Effect | Activity (Cell membrane [29]) Dose-Dependent Effect | Activity (Cell membrane [30]) | Activity (Cell membrane [31]) | Activity (Cell membrane [32]) | Activity (Cell membrane [33]) | Activity (Cell membrane [34]) | Activity (Cell membrane [35]) | Activity (Cell membrane [36]) | Activity (Cell membrane [37]) | Activity (Cell membrane [38]) | Activity (Cell membrane [39]) | Activity (Cell membrane [40]) | Activity (Cell membrane [41]) | Activity (Cell membrane [42]) | Activity (Cell membrane [43]) | Activity (Cell membrane [44])
1 µg/mL: MIC (Enterococcus faecalis [2]) | MIC (Enterococcus faecalis [7])
0.5 µg/mL: MIC (Staphylococcus aureus [5]) | MIC (Enterococcus faecalis [8])
inactive: Activity (Staphylococcus aureus [23]) | Activity (Staphylococcus aureus [24]) | Activity (Staphylococcus aureus [25]) | Activity (Enterococcus faecalis [27])
<4: Ratio (Staphylococcus aureus [9]) | Ratio (Enterococcus faecalis [10])
0.25 µg/mL: MIC (Staphylococcus aureus [1]) | MIC (Staphylococcus aureus [3]) | MIC (Staphylococcus aureus [4]) | MIC (Staphylococcus aureus [6])
>90%: inhibition (INH) (Staphylococcus aureus [16]) | inhibition (INH) (Enterococcus faecalis [17])

CCCCCCc1c(-c2ccc(OCC(=O)CN[C@H](CCCNC(=N)N)C(=O)OC)cc2OCC(=O)CN[C@H](CCCNC(=N)N)C(=O)OC)oc2cc(OC)cc(O)c2c1=O
32 µg/mL: MIC (Enterococcus faecalis [2]) | MIC (Enterococcus faecalis [8])
active: Activity (Staphylococcus aureus [11]) | Activity (Staphylococcus aureus [12]) Dose-Dependent Effect | Activity (Enterococcus faecalis [13]) Dose-Dependent Effect | Activity (Staphylococcus aureus [14]) Dose-Dependent Effect | Activity (Enterococcus faecalis [15]) Dose-Dependent Effect | Activity (Cell membrane [18]) | Activity (Cell membrane [19]) | Activity (Cell membrane [20]) | Activity (Cell membrane [21]) | Activity (Staphylococcus aureus [22]) | Activity (Enterococcus faecalis [26]) | Activity (Cell membrane [28]) Dose-Dependent Effect | Activity (Cell membrane [29]) Dose-Dependent Effect | Activity (Cell membrane [30]) | Activity (Cell membrane [31]) | Activity (Cell membrane [32]) | Activity (Cell membrane [33]) | Activity (Cell membrane [34]) | Activity (Cell membrane [35]) | Activity (Cell membrane [36]) | Activity (Cell membrane [37]) | Activity (Cell membrane [38]) | Activity (Cell membrane [39]) | Activity (Cell membrane [40]) | Activity (Cell membrane [41]) | Activity (Cell membrane [42]) | Activity (Cell membrane [43]) | Activity (Cell membrane [44])
1 µg/mL: MIC (Staphylococcus aureus [1]) | MIC (Staphylococcus aureus [4]) | MIC (Staphylococcus aureus [6])
64 µg/mL: MIC (Enterococcus faecalis [7])
inactive: Activity (Staphylococcus aureus [23]) | Activity (Staphylococcus aureus [24]) | Activity (Staphylococcus aureus [25]) | Activity (Enterococcus faecalis [27])
<4: Ratio (Staphylococcus aureus [9]) | Ratio (Enterococcus faecalis [10])
2 µg/mL: MIC (Staphylococcus aureus [3]) | MIC (Staphylococcus aureus [5])
>90%: inhibition (INH) (Staphylococcus aureus [16]) | inhibition (INH) (Enterococcus faecalis [17])

CCCCCCc1c(-c2ccc(OCCCCN(C)C)cc2OCCCCN(C)C)oc2cc(OC)cc(O)c2c1=O
1 µg/mL: MIC (Enterococcus faecalis [2]) | MIC (Staphylococcus aureus [3]) | MIC (Staphylococcus aureus [4]) | MIC (Staphylococcus aureus [6]) | MIC (Enterococcus faecalis [7]) | MIC (Enterococcus faecalis [8])
<4: Ratio (Staphylococcus aureus [9]) | Ratio (Enterococcus faecalis [10])
active: Activity (Staphylococcus aureus [11]) | Activity (Staphylococcus aureus [12]) Dose-Dependent Effect | Activity (Enterococcus faecalis [13]) Dose-Dependent Effect | Activity (Staphylococcus aureus [14]) Dose-Dependent Effect | Activity (Enterococcus faecalis [15]) Dose-Dependent Effect | Activity (Cell membrane [18]) | Activity (Cell membrane [19]) | Activity (Cell membrane [20]) | Activity (Cell membrane [21]) | Activity (Staphylococcus aureus [22]) | Activity (Enterococcus faecalis [26]) | Activity (Cell membrane [28]) Dose-Dependent Effect | Activity (Cell membrane [29]) Dose-Dependent Effect | Activity (Cell membrane [30]) | Activity (Cell membrane [31]) | Activity (Cell membrane [32]) | Activity (Cell membrane [33]) | Activity (Cell membrane [34]) | Activity (Cell membrane [35]) | Activity (Cell membrane [36]) | Activity (Cell membrane [37]) | Activity (Cell membrane [38]) | Activity (Cell membrane [39]) | Activity (Cell membrane [40]) | Activity (Cell membrane [41]) | Activity (Cell membrane [42]) | Activity (Cell membrane [43]) | Activity (Cell membrane [44])
>90%: inhibition (INH) (Staphylococcus aureus [16]) | inhibition (INH) (Enterococcus faecalis [17])
0.5 µg/mL: MIC (Staphylococcus aureus [1]) | MIC (Staphylococcus aureus [5])
inactive: Activity (Staphylococcus aureus [23]) | Activity (Staphylococcus aureus [24]) | Activity (Staphylococcus aureus [25]) | Activity (Enterococcus faecalis [27])
